Measurements from PMC10107140, “Preparative‐Scale Biocatalytic Oxygenation of N‐Heterocycles with a Lyophilized Peroxygenase Catalyst” (Angewandte Chemie (International Ed. in English), 2022).

How the values were obtained:
Assay type in all cases: biochemical
[1] = molecular target: T1, rAaeUPO-PaDa-I-H (unspecific peroxygenase) (Cyclocybe aegerita, UniProt B9W4V6, F354L/I291V/L110F/V100A/V118I); assay: competition-based 5-nitro-1,3-benzodioxole peroxygenase assay
T1 construct: gene APO1; recombinant, expressed in Pichia pastoris, C-terminal histidine tag
T1 sequence (B9W4V6 44-371 V100A/L110F/V118I/I291V/F354L): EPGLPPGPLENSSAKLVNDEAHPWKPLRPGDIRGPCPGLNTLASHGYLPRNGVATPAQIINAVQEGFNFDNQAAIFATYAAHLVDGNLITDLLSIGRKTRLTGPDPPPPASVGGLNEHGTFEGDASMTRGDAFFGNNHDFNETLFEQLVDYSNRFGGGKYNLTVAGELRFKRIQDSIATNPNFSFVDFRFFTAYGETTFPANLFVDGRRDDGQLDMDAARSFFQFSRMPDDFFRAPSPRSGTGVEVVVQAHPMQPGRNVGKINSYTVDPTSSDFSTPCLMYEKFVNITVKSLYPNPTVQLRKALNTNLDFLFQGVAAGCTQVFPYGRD

[2] = molecular target: T1, rAaeUPO-PaDa-I-H (unspecific peroxygenase); assay: competition-based 5-nitro-1,3-benzodioxole peroxygenase assay; also converted to (R)-alcohol […]
[3] = molecular target: T1, rAaeUPO-PaDa-I-H (unspecific peroxygenase); assay: as above; remark: listed apart in the source

CCc1ccncc1 [compound 6, 4-ethylpyridine]
IC50 [1]: 16 µM

CCc1cccnc1 [compound 10, 3-ethylpyridine]
IC50 [2]: 700 µM

CCc1ccccn1 [compound 14, 2-ethylpyridine]
IC50 [3]: 29500 µM
